One series deals with CYP3A4 (Homo sapiens, UniProt P08684). The experiment in a line: Cytochrome P450 (CYP450) Inhibition Assay, CYP3A4 (Vivid fluorescence, BOMCC substrate). Particulars: human, P450 Baculosomes (recombinant CYP3A4), probe BOMCC (Vivid substrate).
The test system of another series is sodium channel. The experiment in a line: Guanidine influx assay (14C-guanidine radiotracer flux, in vitro). In kind it is cell-based, human or rat. Particulars: guanidine influx assay using a known cell line that expresses a sodium channel; activity level class. In outline: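 Cells stably expressing human or rat sodium channels (~100,000/well, 20–24 h) were exposed in low-sodium choline buffer to test agent plus aconitine activator and 14C-guanidine at ambient temperature. Intracellular 14C-guanidine was counted by scintillation; IC50 fitted by 4-parameter logistic over half-dilutions around 1 μM.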

The test system of series [1] is inactivated state of the channel of interest (sodium channel). The experiment in a line: Electrophysiological assay (whole cell voltage clamp, in vitro). Type of series: cell-based. Particulars: affinity for the inactivated state of the channel of interest. Here is the method: Cells expressing the channel of interest are cultured in DMEM growth media (Gibco) with 0.5 mg/mL G418, +/−1% PSG, and 10% heat-inactivated fetal bovine serum at 37° C. and 5% CO2. For electrophysiological recordings, cells are plated on 10 mm dishes.
Whole cell recordings are examined by established methods of whole cell voltage clamp (Bean et al., op. cit.) using an Axopatch 200B amplifier and Clampex software (Axon Instruments, Union City, Calif.). All experiments are performed at ambient temperature. Electrodes are fire-polished to resistances of 2-4 Mohms Voltage errors and capacitance artifacts are minimized by series resistance compensation and capacitance compensation, respectively. Data are acquired at 40 kHz and filtered at 5 kHz. The external (bath) solution consists of: NaCl (140 mM), KCl (5 mM), CaCl2 (2 mM), MgCl2 (1 mM), HEPES (10 mM) at pH 7.4. The internal (pipette) solution consists of (in mM): NaCl (5), CaCl2 (0.1), MgCl2 (2), CsCl (10), CsF (120), HEPES (10), EGTA (10), at pH 7.2.
To estimate the steady-state affinity of compounds for the resting and inactivated state of the channel (Kr and Ki, respectively), 12.5 ms test pulses to depolarizing voltages from −60 to +90 mV from a holding potential of −120 m V is used to construct current-voltage relationships (I-V curves). A voltage near the peak of the IV-curve (−30 to 0 m V) is used as the test pulse throughout the remainder of the experiment. Steady-state inactivation (availability) curves are then constructed by measuring the current activated during a 8.75 ms test pulse following 1 second conditioning pulses to potentials ranging from −120 to −10 m V.
The steady-state voltage-dependence of binding of a compound to a sodium channel is determined by measuring the blockage of the ionic current at two holding potentials. Binding to rested-state channels is determined by using a holding potential of −120 mV, so that maximal availability is achieved. Binding to inactivated-state channels is evaluated at a holding potential such that only 10% of the channels are available to open. The membrane potential is held at this voltage for at least 10 seconds so that drug binding can equilibrate.
The apparent dissociation constant at each voltage is calculated with the equation:
[formula] where Kd is the dissociation constant (either Kr or Ki), and [Drug] is the concentration of the test compound.
The Example numbers provided in Table 3 correspond to the Examples herein: […]

Chain of CYP3A4 (P08684 whole entry): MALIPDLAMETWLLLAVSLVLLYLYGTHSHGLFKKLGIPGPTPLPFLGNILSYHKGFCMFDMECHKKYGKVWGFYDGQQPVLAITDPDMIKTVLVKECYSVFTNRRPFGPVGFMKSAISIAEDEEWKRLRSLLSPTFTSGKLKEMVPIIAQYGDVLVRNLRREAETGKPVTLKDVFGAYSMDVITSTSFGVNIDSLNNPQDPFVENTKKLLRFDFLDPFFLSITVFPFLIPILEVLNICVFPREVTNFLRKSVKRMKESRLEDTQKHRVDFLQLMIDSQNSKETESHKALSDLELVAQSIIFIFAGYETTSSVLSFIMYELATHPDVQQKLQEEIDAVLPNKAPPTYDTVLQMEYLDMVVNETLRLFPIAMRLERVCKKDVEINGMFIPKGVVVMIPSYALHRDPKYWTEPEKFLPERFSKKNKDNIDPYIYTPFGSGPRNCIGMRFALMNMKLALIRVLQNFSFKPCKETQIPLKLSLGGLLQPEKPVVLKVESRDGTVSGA

The term inhibition denotes how much of the control response was suppressed. As usually defined, the IC50 is the concentration that gives 50% inhibition. In general, melting point refers to the temperature of the solid-liquid transition. `N#Cc1cccc(CN2C(=O)C3(COc4cc5c(cc43)CCO5)c3ccccc32)c1` (stereo not drawn) [Example 4.22, 3-[(2′-oxo-5,6-dihydrospiro[benzo[1,2-b:5,4-b′]difuran-3,3′-indol]-1′(2′H)-yl)methyl]benzonitrile] came in with a melting point of 187 to 193 °C. Besides, the inhibition at 10 µM at CYP3A4 is more than 50%. In the series on sodium channel, the IC50 was in the range of 1 to 100 nM. Besides, in series [1], the Ki was more than 300 nM.
In the same order, the values of `O=C1N(Cc2ccc3nonc3c2)c2ccccc2C12COc1cc3c(cc12)CCO3` (stereo not drawn) [Example 4.27, 1′-(2,1,3-benzoxadiazol-5-ylmethyl)-5,6-dihydrospiro[benzo[1,2-b:5,4-b′]difuran-3,3′-indol]-2′(1′H)-one] are 169 to 171 °C, more than 50%, 1 to 100 nM and more than 300 nM.
For `O=C1N(Cc2ccc3nsnc3c2)c2ccccc2C12COc1cc3c(cc12)CCO3` (stereo not drawn) [Example 4.28, 1′-(2,1,3-benzothiadiazol-5-ylmethyl)-5,6-dihydrospiro[benzo[1,2-b:5,4-b′]difuran-3,3′-indol]-2′(1′H)-one] the same measures were 162 to 164 °C, more than 50%, 1 to 100 nM and less than 300 nM.
In the same order, the values of `O=C1N(CC2CN(Cc3ccccc3)CCO2)c2ccccc2C12COc1cc3c(cc12)CCO3` (stereo not drawn) [Example 4.29, 1′-[(4-benzylmorpholin-2-yl)methyl]-5,6-dihydrospiro[benzo[1,2-b:5,4-b′]difuran-3,3′-indol]-2′(1′H)-one] are 65 to 70 °C, more than 50%, 1000 to 10000 nM and more than 300 nM.
Compound `CC(C)CCN1C(=O)C2(COc3cc4c(cc32)OCCO4)c2ccccc21` (stereo not drawn) [Example 4.36, 1′-(3-methylbutyl)-2,3-dihydrospiro[furo[2,3-g][1,4]benzodioxine-8,3′-indol]-2′(1′H)-one] had a melting point of 134 to 137 °C. For the same compound, the inhibition at 10 µM on CYP3A4 is less than 50%. Further, the IC50 in the series on sodium channel lay in the range of 1 to 100 nM. This compound also came in with a Ki in series [1] of less than 300 nM.
For `O=C1N(CC2CCCCO2)c2ccccc2C12COc1cc3c(cc12)OCCO3` (stereo not drawn) [Example 4.38, 1′-(tetrahydro-2H-pyran-2-ylmethyl)-2,3-dihydrospiro[furo[2,3-g][1,4]benzodioxine-8,3′-indol]-2′(1′H)-one] the same measures were 158 to 166 °C, less than 50%, 1 to 100 nM and less than 300 nM.
In turn, `O=C1N(C[C@@H]2CCCO2)c2ccccc2C12COc1cc3c(cc12)OCCO3` (stereo partly drawn) [Example 4.43, 1-[(2S)-tetrahydrofuran-2-ylmethyl]-2,3-dihydrospiro[furo[2,3-g][1,4]benzodioxine-8,3′-indol]-2′(1′H)-one] returned a melting point of 173 to 175 °C. Moreover, the inhibition at 10 µM at CYP3A4 is less than 50%. The half-maximal inhibitory concentration (IC50) in the series on sodium channel was in the range of 1 to 100 nM. The Ki in series [1] is more than 300 nM.
In the same order, the values of `O=C1N(CC2COCCO2)c2ccccc2C12COc1cc3c(cc12)OCCO3` (stereo not drawn) [Example 4.45, 1′-(1,4-dioxan-2-ylmethyl)-2,3-dihydrospiro[furo[2,3-g][1,4]benzodioxine-8,3′-indol]-2′(1′H)-one] are 160 to 165 °C, less than 50%, 1 to 100 nM and more than 300 nM.
In the same order, the values of `O=C1N(Cc2ccc3c(c2)OCCO3)c2ccccc2C12COc1cc3c(cc12)OCCO3` (stereo not drawn) [Example 4.48, 1-(2,3-dihydro-1,4-benzodioxin-6-ylmethyl)-2,3-dihydrospiro[furo[2,3-g][1,4]benzodioxine-8,3′-indol]-2′(1′H)-one] are 120 to 123 °C, less than 50%, 1 to 100 nM and less than 300 nM.
For `O=C1N(Cc2ccc(C(F)(F)F)o2)c2ccccc2[C@@]12COc1cc3c(cc12)OCCO3` [Example 4.49, (R)-1′-{[5-(trifluoromethyl)furan-2-yl]methyl}-2,3-dihydrospiro[furo[2,3-g][1,4]benzodioxine-8,3′-indol]-2′(1′H)-one] the same measures were 64 to 68 °C, more than 50%, 1 to 100 nM and less than 300 nM.
`O=C1N(Cc2ccc(C(F)(F)F)o2)c2ccccc2[C@]12COc1cc3c(cc12)OCCO3` [Example 4.50, (S)-1′-{[5-(trifluoromethyl)furan-2-yl]methyl}-2,3-dihydrospiro[furo[2,3-g][1,4]benzodioxine-8,3′-indol]-2′(1′H)-one] showed a melting point of 53 to 56 °C. In addition, the inhibition at 10 µM on CYP3A4 was more than 50%. Further, in the series on sodium channel, the IC50 was in the range of 1 to 100 nM. In addition, the Ki in series [1] is less than 300 nM.
In the same order, the values of `O=C1N(Cc2ccccn2)c2ccccc2[C@]12COc1cc3c(cc12)OCCO3` [Example 4.51, (S)-1′-(pyridin-2-ylmethyl)-2,3-dihydrospiro[furo[2,3-g][1,4]benzodioxine-8,3′-indol]-2′(1′H)-one] are 144 to 146 °C, less than 50%, 1 to 100 nM and less than 300 nM.
For `O=C1N(Cc2ccc(C(F)(F)F)o2)c2ccccc2C12COc1cc3c(cc12)OCCCO3` (stereo not drawn) [Example 4.54, 1-{[5-(trifluoromethyl)furan-2-yl]methyl}-3,4-dihydro-2H-spiro[furo[2,3-h][1,5]benzodioxepine-9,3′-indol]-2′(1′H)-one] the same measures were 162 to 164 °C, more than 50%, 100 to 1000 nM and less than 300 nM.
For `O=C1N(Cc2ccccn2)c2ccccc2C12COc1cc3c(cc12)OCCCO3` (stereo not drawn) [Example 4.55, 1′-(pyridin-2-ylmethyl)-3,4-dihydro-2H-spiro[furo[2,3-h][1,5]benzodioxepine-9,3′-indol]-2′(1′H)-one] the same measures were 122 to 123 °C, less than 50%, 100 to 1000 nM and more than 300 nM.
Turning to `O=C1N(Cc2ccccn2)c2cccc(-c3ccc(Oc4ccccc4)cc3)c2C12COc1cc3c(cc12)OCCO3` (stereo not drawn) [Example 4.103, 4′-(4-phenoxyphenyl)-1′-(pyridin-2-ylmethyl)-2,3-dihydrospiro[furo[2,3-g][1,4]benzodioxine-8,3′-indol]-2′(1′H)-one], the melting point is 196 to 199 °C. For the same compound, the inhibition at 10 µM at CYP3A4 is less than 50%. Moreover, the IC50 in the series with sodium channel was in the range of 100 to 1000 nM. The compound also showed a Ki in series [1] of less than 300 nM.
For `O=C1N(Cc2ccccn2)c2ccccc2[C@@]12COc1cc3c(cc12)CCO3` [Example 5.4, (3R)-1-(pyridin-2-ylmethyl)-5,6-dihydrospiro[benzo[1,2-b:5,4-b′]difuran-3,3′-indol]-2′(1′H)-one] the same measures were 154 to 156 °C, less than 50%, 1000 to 10000 nM and more than 300 nM.
For `O=C1N(Cc2ccc(C(F)(F)F)o2)c2ccccc2[C@@]12COc1cc3c(cc12)CCO3` [Example 5.5, (3R)-1′-{[5-(trifluoromethyl)furan-2-yl]methyl}-5,6-dihydrospiro[benzo[1,2-b:5,4-b′]difuran-3,3′-indol]-2′(1′H)-one] the same measures were 68 to 70 °C, more than 50%, 1000 to 10000 nM and more than 300 nM.
For `O=C1N(Cc2ccccn2)c2ccccc2[C@]12COc1cc3c(cc12)CCO3` [Example 5.6, (3S)-1′-(pyridin-2-ylmethyl)-5,6-dihydrospiro[benzo[1,2-b:5,4-b′]difuran-3,3′-indol]-2′(1′H)-one] the same measures were 84 to 85 °C, less than 50%, 1 to 100 nM and more than 300 nM.

These data come from patent publication US8263606B2 (Xenon Pharmaceuticals Inc., priority 2008, dated 2012).
